The values that follow come from patent US12280082B2, “Formulation for inhibiting virus replication” (priority 2020, dated 2025).

One data set concerns VeroE6 cells. The experiment in a line: In vitro cytotoxicity (Hoechst 33342 / Sytox orange imaging). Format: cell-based. On the procedure: The cytotoxicity assay was done in a 96-well plate format in 3 wells for each sample. 1×10e4 VeroE6 cells were plated per well and incubated at 37° C. overnight for the monolayer formation. Next day, cells were incubated with 1 μl (5.5 mg/ml solution in 200 μl) A. paniculate at the concentration with final DMSO conc. being 0.5%. The control cells were incubated with 0.5% DMSO only. The cells without test substance was the control for water soluble compounds. 24 and 48 hours later, cells were stained with Hoechst 33342 and Sytox orange dye. Images were taken at 10×, 16 images per well, which covers 90% of well area using ImageXpress Microconfocal (Molecular Devices). Hoechst 33342 nucleic acid stain is a popular cell-permeant nuclear counterstain that emits blue fluorescence when bound to dsDNA. It stains all the live and dead cells. Sytox orange dye stains nucleic acids in cells with compromised membranes. This stain is an indicator of cell death. First, the software will count total number of cells in the Hoechst image. In the Sytox image, it will count, among Hoechst positive cells, how many cells are positive for sytox.

For another data set, the system named is SARS-COV2. The experiment in a line: microbe, parasite or virus in culture. In kind it is cell-based. The settings on record: Severe acute respiratory syndrome coronavirus 2, Vero C1008, 48 h.

Structures are written as SMILES. Read-outs that look alike come from different tables or passages of the source.

The term IC50 denotes the point on the concentration scale where inhibition reaches its midpoint. For `CCC(CC)COC(=O)[C@H](C)N[P@](=O)(OC[C@H]1O[C@@](C#N)(c2ccc3c(N)ncnn23)[C@H](O)[C@@H]1O)Oc1ccccc1` [Remdesivir], the “percentage of cell viability” value with VeroE6 cells (24th hour of treatment) is on record as 99.23%; in the data set on VeroE6 cells (48th hour of treatment), 94.37%. Besides, the IC50 came out at 150 nM in the data set on SARS-COV2 (read-out: IC50 for E gene) and 110 nM with SARS-COV2 (read-out: IC50 for N gene).
